# In the NIST ThermoML archive (doi:10.1021/je1008747):
# ± gives the expanded uncertainty stated by the source.
# Details: Liquid
structure (smiles),measurement,setting,value
CCn1cc[n+](C)c1.C[C@H](O)C(=O)[O-] [3-ethyl-1-methylimidazolium (S)-2-hydroxypropanoate],mass density,"293.15 K, 101.33 kPa",1149.7 ± 2.8 kg/m3
same,mass density,"298.15 K, 101.33 kPa",1146.1 ± 2.8 kg/m3
same,mass density,"303.15 K, 101.33 kPa",1142.5 ± 2.8 kg/m3
same,mass density,"308.15 K, 101.33 kPa",1139 ± 2.8 kg/m3
same,mass density,"312.6 K, 100 kPa",1136 ± 3 kg/m3
same,mass density,"312.6 K, 10000 kPa",1140 ± 3 kg/m3
same,mass density,"312.6 K, 20000 kPa",1144 ± 3 kg/m3
same,mass density,"312.6 K, 30000 kPa",1148 ± 3 kg/m3
same,mass density,"312.6 K, 40000 kPa",1151 ± 3 kg/m3
same,mass density,"312.6 K, 50000 kPa",1155 ± 3 kg/m3
same,mass density,"312.6 K, 60000 kPa",1158 ± 3 kg/m3
same,mass density,"312.6 K, 70000 kPa",1162 ± 3 kg/m3
same,mass density,"312.6 K, 80000 kPa",1165 ± 3 kg/m3
same,mass density,"312.6 K, 90000 kPa",1168 ± 3 kg/m3
same,mass density,"312.6 K, 100000 kPa",1172 ± 3 kg/m3
same,mass density,"312.6 K, 110000 kPa",1175 ± 4 kg/m3
same,mass density,"312.6 K, 120000 kPa",1178 ± 4 kg/m3
same,mass density,"312.6 K, 130000 kPa",1181 ± 4 kg/m3
same,mass density,"312.6 K, 140000 kPa",1183 ± 4 kg/m3
same,mass density,"312.6 K, 150000 kPa",1186 ± 4 kg/m3
same,mass density,"312.6 K, 160000 kPa",1189 ± 4 kg/m3
same,mass density,"312.6 K, 170000 kPa",1192 ± 4 kg/m3
same,mass density,"312.6 K, 180000 kPa",1195 ± 4 kg/m3
same,mass density,"312.6 K, 190000 kPa",1197 ± 5 kg/m3
same,mass density,"312.6 K, 200000 kPa",1200 ± 5 kg/m3
same,mass density,"313.15 K, 101.33 kPa",1135.6 ± 2.8 kg/m3
same,mass density,"318.15 K, 101.33 kPa",1132.2 ± 2.8 kg/m3
same,mass density,"323.15 K, 101.33 kPa",1128.8 ± 2.7 kg/m3
same,mass density,"328.15 K, 101.33 kPa",1125.4 ± 2.7 kg/m3
same,mass density,"332.1 K, 10000 kPa",1126 ± 3 kg/m3
same,mass density,"332.1 K, 20000 kPa",1131 ± 3 kg/m3
same,mass density,"332.1 K, 30000 kPa",1135 ± 3 kg/m3
same,mass density,"332.1 K, 40000 kPa",1139 ± 3 kg/m3
same,mass density,"332.1 K, 50000 kPa",1142 ± 3 kg/m3
same,mass density,"332.1 K, 60000 kPa",1146 ± 3 kg/m3
same,mass density,"332.1 K, 70000 kPa",1149 ± 3 kg/m3
same,mass density,"332.1 K, 80000 kPa",1153 ± 3 kg/m3
same,mass density,"332.1 K, 90000 kPa",1156 ± 3 kg/m3
same,mass density,"332.1 K, 100000 kPa",1159 ± 3 kg/m3
same,mass density,"332.1 K, 110000 kPa",1163 ± 3 kg/m3
same,mass density,"332.1 K, 120000 kPa",1166 ± 4 kg/m3
same,mass density,"332.1 K, 130000 kPa",1169 ± 4 kg/m3
same,mass density,"332.1 K, 140000 kPa",1172 ± 4 kg/m3
same,mass density,"332.1 K, 150000 kPa",1175 ± 4 kg/m3
same,mass density,"332.1 K, 160000 kPa",1178 ± 4 kg/m3
same,mass density,"332.1 K, 170000 kPa",1180 ± 4 kg/m3
same,mass density,"332.1 K, 180000 kPa",1183 ± 4 kg/m3
same,mass density,"332.1 K, 190000 kPa",1186 ± 4 kg/m3
same,mass density,"332.1 K, 200000 kPa",1189 ± 5 kg/m3
same,mass density,"333.15 K, 101.33 kPa",1122.1 ± 2.7 kg/m3
same,mass density,"338.15 K, 101.33 kPa",1118.7 ± 2.7 kg/m3
same,mass density,"343.15 K, 101.33 kPa",1115.4 ± 2.7 kg/m3
same,mass density,"348.15 K, 101.33 kPa",1112.1 ± 2.7 kg/m3
same,mass density,"352.1 K, 10000 kPa",1113 ± 3 kg/m3
same,mass density,"352.1 K, 20000 kPa",1118 ± 3 kg/m3
same,mass density,"352.1 K, 30000 kPa",1122 ± 3 kg/m3
same,mass density,"352.1 K, 40000 kPa",1126 ± 3 kg/m3
same,mass density,"352.1 K, 50000 kPa",1130 ± 3 kg/m3
same,mass density,"352.1 K, 60000 kPa",1134 ± 3 kg/m3
same,mass density,"352.1 K, 70000 kPa",1137 ± 3 kg/m3
same,mass density,"352.1 K, 80000 kPa",1141 ± 3 kg/m3
same,mass density,"352.1 K, 90000 kPa",1144 ± 3 kg/m3
same,mass density,"352.1 K, 100000 kPa",1148 ± 3 kg/m3
same,mass density,"352.1 K, 110000 kPa",1151 ± 3 kg/m3
same,mass density,"352.1 K, 120000 kPa",1154 ± 3 kg/m3
same,mass density,"352.1 K, 130000 kPa",1157 ± 4 kg/m3
same,mass density,"352.1 K, 140000 kPa",1160 ± 4 kg/m3
same,mass density,"352.1 K, 150000 kPa",1164 ± 4 kg/m3
same,mass density,"352.1 K, 160000 kPa",1166 ± 4 kg/m3
same,mass density,"352.1 K, 170000 kPa",1169 ± 4 kg/m3
same,mass density,"352.1 K, 180000 kPa",1172 ± 4 kg/m3
same,mass density,"352.1 K, 190000 kPa",1175 ± 4 kg/m3
same,mass density,"352.1 K, 200000 kPa",1178 ± 4 kg/m3
same,mass density,"353.15 K, 101.33 kPa",1108.8 ± 2.7 kg/m3
same,mass density,"372.2 K, 10000 kPa",1101 ± 3 kg/m3
same,mass density,"372.2 K, 20000 kPa",1105 ± 3 kg/m3
same,mass density,"372.2 K, 30000 kPa",1110 ± 3 kg/m3
same,mass density,"372.2 K, 40000 kPa",1114 ± 3 kg/m3
same,mass density,"372.2 K, 50000 kPa",1118 ± 3 kg/m3
same,mass density,"372.2 K, 60000 kPa",1122 ± 3 kg/m3
same,mass density,"372.2 K, 70000 kPa",1126 ± 3 kg/m3
same,mass density,"372.2 K, 80000 kPa",1129 ± 3 kg/m3
same,mass density,"372.2 K, 90000 kPa",1133 ± 3 kg/m3
same,mass density,"372.2 K, 100000 kPa",1137 ± 3 kg/m3
same,mass density,"372.2 K, 110000 kPa",1140 ± 3 kg/m3
same,mass density,"372.2 K, 120000 kPa",1143 ± 3 kg/m3
same,mass density,"372.2 K, 130000 kPa",1147 ± 3 kg/m3
same,mass density,"372.2 K, 140000 kPa",1150 ± 4 kg/m3
same,mass density,"372.2 K, 150000 kPa",1153 ± 4 kg/m3
same,mass density,"372.2 K, 160000 kPa",1156 ± 4 kg/m3
same,mass density,"372.2 K, 170000 kPa",1159 ± 4 kg/m3
same,mass density,"372.2 K, 180000 kPa",1162 ± 4 kg/m3
same,mass density,"372.2 K, 190000 kPa",1165 ± 4 kg/m3
same,mass density,"372.2 K, 200000 kPa",1168 ± 4 kg/m3
same,mass density,"392.4 K, 10000 kPa",1088 ± 2 kg/m3
same,mass density,"392.4 K, 20000 kPa",1093 ± 3 kg/m3
same,mass density,"392.4 K, 30000 kPa",1098 ± 3 kg/m3
same,mass density,"392.4 K, 40000 kPa",1102 ± 3 kg/m3
same,mass density,"392.4 K, 50000 kPa",1106 ± 3 kg/m3
same,mass density,"392.4 K, 60000 kPa",1110 ± 3 kg/m3
same,mass density,"392.4 K, 70000 kPa",1114 ± 3 kg/m3
same,mass density,"392.4 K, 80000 kPa",1118 ± 3 kg/m3
same,mass density,"392.4 K, 90000 kPa",1122 ± 3 kg/m3
same,mass density,"392.4 K, 100000 kPa",1126 ± 3 kg/m3
same,mass density,"392.4 K, 110000 kPa",1129 ± 3 kg/m3
same,mass density,"392.4 K, 120000 kPa",1133 ± 3 kg/m3
same,mass density,"392.4 K, 130000 kPa",1136 ± 3 kg/m3
same,mass density,"392.4 K, 140000 kPa",1139 ± 3 kg/m3
same,mass density,"392.4 K, 150000 kPa",1143 ± 4 kg/m3
same,mass density,"392.4 K, 160000 kPa",1146 ± 4 kg/m3
same,mass density,"392.4 K, 170000 kPa",1149 ± 4 kg/m3
same,mass density,"392.4 K, 180000 kPa",1152 ± 4 kg/m3
same,mass density,"392.4 K, 190000 kPa",1155 ± 4 kg/m3
same,mass density,"392.4 K, 200000 kPa",1158 ± 4 kg/m3
same,mass density,"412.4 K, 10000 kPa",1076 ± 2 kg/m3
same,mass density,"412.4 K, 20000 kPa",1081 ± 2 kg/m3
same,mass density,"412.4 K, 30000 kPa",1086 ± 3 kg/m3
same,mass density,"412.4 K, 40000 kPa",1090 ± 3 kg/m3
same,mass density,"412.4 K, 50000 kPa",1095 ± 3 kg/m3
same,mass density,"412.4 K, 60000 kPa",1099 ± 3 kg/m3
same,mass density,"412.4 K, 70000 kPa",1103 ± 3 kg/m3
same,mass density,"412.4 K, 80000 kPa",1107 ± 3 kg/m3
same,mass density,"412.4 K, 90000 kPa",1111 ± 3 kg/m3
same,mass density,"412.4 K, 100000 kPa",1115 ± 3 kg/m3
same,mass density,"412.4 K, 110000 kPa",1119 ± 3 kg/m3
same,mass density,"412.4 K, 120000 kPa",1122 ± 3 kg/m3
same,mass density,"412.4 K, 130000 kPa",1126 ± 3 kg/m3
same,mass density,"412.4 K, 140000 kPa",1129 ± 3 kg/m3
same,mass density,"412.4 K, 150000 kPa",1132 ± 3 kg/m3
same,mass density,"412.4 K, 160000 kPa",1136 ± 4 kg/m3
same,mass density,"412.4 K, 170000 kPa",1139 ± 4 kg/m3
same,mass density,"412.4 K, 180000 kPa",1142 ± 4 kg/m3
same,mass density,"412.4 K, 190000 kPa",1145 ± 4 kg/m3
same,mass density,"412.4 K, 200000 kPa",1148 ± 4 kg/m3
same,mass density,"432.2 K, 10000 kPa",1064 ± 2 kg/m3
same,mass density,"432.2 K, 20000 kPa",1069 ± 2 kg/m3
same,mass density,"432.2 K, 30000 kPa",1074 ± 2 kg/m3
same,mass density,"432.2 K, 40000 kPa",1079 ± 3 kg/m3
same,mass density,"432.2 K, 50000 kPa",1084 ± 3 kg/m3
same,mass density,"432.2 K, 60000 kPa",1088 ± 3 kg/m3
same,mass density,"432.2 K, 70000 kPa",1093 ± 3 kg/m3
same,mass density,"432.2 K, 80000 kPa",1097 ± 3 kg/m3
same,mass density,"432.2 K, 90000 kPa",1101 ± 3 kg/m3
same,mass density,"432.2 K, 100000 kPa",1105 ± 3 kg/m3
same,mass density,"432.2 K, 110000 kPa",1109 ± 3 kg/m3
same,mass density,"432.2 K, 120000 kPa",1112 ± 3 kg/m3
same,mass density,"432.2 K, 130000 kPa",1116 ± 3 kg/m3
same,mass density,"432.2 K, 140000 kPa",1119 ± 3 kg/m3
same,mass density,"432.2 K, 150000 kPa",1123 ± 3 kg/m3
same,mass density,"432.2 K, 160000 kPa",1126 ± 3 kg/m3
same,mass density,"432.2 K, 170000 kPa",1130 ± 4 kg/m3
same,mass density,"432.2 K, 180000 kPa",1133 ± 4 kg/m3
same,mass density,"432.2 K, 190000 kPa",1136 ± 4 kg/m3
same,mass density,"432.2 K, 200000 kPa",1139 ± 4 kg/m3
